# In ChEMBL document CHEMBL1126865, “Structure-activity relationship within a series of pyrazolidinone antibacterial agents. 2. Effect of side-chain modification on in vitro activity and pharmacokinetic parameters” (J Med Chem, 1993):
# Legend:
# Assay type in all cases: functional
# [1] = tested on: Klebsiella aerogenes; assay: In vitro antibacterial activity against Enterobacter aerogenes C32
# [2] = tested on: Escherichia coli; assay: In vitro antibacterial activity against Escherichia coli EC14
# [3] = tested on: Haemophilus influenzae; assay: In vitro antibacterial activity against Haemophilus influenza C.L
# [4] = tested on: Klebsiella pneumoniae; assay: In vitro antibacterial activity against Klebsiella X26
# [5] = tested on: Pseudomonas aeruginosa; assay: In vitro antibacterial activity against Pseudomonas PS72
# [6] = tested on: Staphylococcus epidermidis; assay: In vitro antibacterial activity against Staphylococcus epidermidis 222
# [7] = tested on: Staphylococcus aureus; assay: In vitro antibacterial activity against Staphylococcus aureus X1.1
# [8] = tested on: Streptococcus pneumoniae; assay: In vitro antibacterial activity against Streptococcus pneumoniae PARK
MIC [1] [µg/mL],MIC [2] [µg/mL],MIC [3] [µg/mL],MIC [4] [µg/mL],MIC [5] [µg/mL],MIC [6] [µg/mL],MIC [7] [µg/mL],MIC [8] [µg/mL],SMILES
128,32,32,32,> 128,32,16,8,N#CC1=C(C(=O)O)N2C(=O)[C@@H](NC(=O)Cc3ccccc3)CN2C1
0.25,0.06,0.125,0.015,> 128,32,16,0.06,CCS(=O)(=O)C1=C(C(=O)O)N2C(=O)[C@@H](NC(=O)/C(=N/OCC3CC3)c3csc(N)n3)CN2C1
0.5,0.25,0.125,0.03,> 128,8,8,0.06,CCCS(=O)(=O)C1=C(C(=O)O)N2C(=O)[C@@H](NC(=O)/C(=N/OCCBr)c3csc(N)n3)CN2C1
0.25,0.125,0.125,0.03,128,16,8,0.125,C=CCO/N=C(/C(=O)N[C@H]1CN2CC(S(C)(=O)=O)=C(C(=O)O)N2C1=O)c1csc(N)n1
1,0.25,0.5,0.125,> 128,16,32,0.5,N#CC1=C(C(=O)O)N2C(=O)[C@@H](NC(=O)/C(=N/OCCCl)c3csc(N)n3)CN2C1
1,0.25,0.25,0.06,128,8,8,0.5,C=CCCCO/N=C(/C(=O)N[C@H]1CN2CC(S(C)(=O)=O)=C(C(=O)O)N2C1=O)c1csc(N)n1
0.125,0.125,0.125,0.03,> 128,8,8,0.125,CS(=O)(=O)C1=C(C(=O)O)N2C(=O)[C@@H](NC(=O)/C(=N/OCCBr)c3csc(N)n3)CN2C1
0.5,0.25,0.25,0.125,> 128,32,32,0.25,C#CCO/N=C(/C(=O)N[C@H]1CN2CC(S(C)(=O)=O)=C(C(=O)O)N2C1=O)c1csc(N)n1
0.25,0.06,0.25,0.015,> 128,8,8,0.125,CCS(=O)(=O)C1=C(C(=O)O)N2C(=O)[C@@H](NC(=O)/C(=N/OCCBr)c3csc(N)n3)CN2C1
1,0.25,0.25,0.06,> 128,32,16,0.125,CCCS(=O)(=O)C1=C(C(=O)O)N2C(=O)[C@@H](NC(=O)/C(=N/OCC(F)(F)F)c3csc(N)n3)CN2C1
0.5,0.125,0.125,0.06,> 128,4,8,0.125,N#CC1=C(C(=O)O)N2C(=O)[C@@H](NC(=O)/C(=N/OCCBr)c3csc(N)n3)CN2C1
128,32,32,16,> 128,8,4,0.5,N#CC1=C(C(=O)O)N2C(=O)[C@@H](NC(=O)CSc3ccccc3)CN2C1
> 128,> 128,8,8,> 128,4,1,0.125,N#CC1=C(C(=O)O)N2C(=O)[C@@H](NC(=O)CSc3cc(Cl)ccc3Cl)CN2C1
0.5,0.125,0.25,0.03,> 128,32,8,0.125,C=CCO/N=C(/C(=O)N[C@H]1CN2CC(S(=O)(=O)CC=C)=C(C(=O)O)N2C1=O)c1csc(N)n1
0.06,0.03,0.06,0.125,8,> 128,> 128,2,CC(C)(O/N=C(/C(=O)N[C@H]1CN2CC(S(C)(=O)=O)=C(C(=O)O)N2C1=O)c1csc(N)n1)C(=O)O
0.5,0.125,0.125,0.06,> 128,16,32,0.125,C=CCO/N=C(/C(=O)N[C@H]1CN2CC(C#N)=C(C(=O)O)N2C1=O)c1csc(N)n1
2,1,0.125,0.06,> 128,16,16,0.125,CCCCO/N=C(/C(=O)N[C@H]1CN2CC(C#N)=C(C(=O)O)N2C1=O)c1csc(N)n1
4,2,0.5,0.03,> 128,16,8,0.06,Nc1nc(/C(=N\OCCCl)C(=O)N[C@H]2CN3CC(S(=O)(=O)Cc4ccccc4)=C(C(=O)O)N3C2=O)cs1
> 128,> 128,> 128,> 128,> 128,> 128,> 128,> 128,N#CC1=C(C(=O)O)N2C(=O)[C@@H](NC(=O)Cn3cnnn3)CN2C1
0.06,0.015,0.25,0.03,128,16,16,0.06,CS(=O)(=O)C1=C(C(=O)O)N2C(=O)[C@@H](NC(=O)/C(=N/OCCF)c3csc(N)n3)CN2C1
1,0.25,0.125,0.03,> 128,4,4,0.06,CCCCO/N=C(/C(=O)N[C@H]1CN2CC(S(C)(=O)=O)=C(C(=O)O)N2C1=O)c1csc(N)n1
0.125,0.06,0.25,0.03,> 128,32,16,0.125,CCS(=O)(=O)C1=C(C(=O)O)N2C(=O)[C@@H](NC(=O)/C(=N/OCCF)c3csc(N)n3)CN2C1
1,0.5,0.5,0.03,> 128,16,8,0.125,CCCCS(=O)(=O)C1=C(C(=O)O)N2C(=O)[C@@H](NC(=O)/C(=N/OCCCl)c3csc(N)n3)CN2C1
2,1,1,0.125,> 128,32,32,0.25,CS(=O)(=O)C1=C(C(=O)O)N2C(=O)[C@@H](NC(=O)/C(=N/OCCCCCl)c3csc(N)n3)CN2C1
64,16,16,32,> 128,32,8,2,N#CC1=C(C(=O)O)N2C(=O)[C@@H](NC(=O)Cc3cccs3)CN2C1
